Measured values: patent US9682083B2, “Pyrrolo[2,3-D]pyrimidine derivatives, process for their preparation and their use as kinase inhibitors” (NERVIANO MEDICAL SCIENCES S.R.L., priority 2013, dated 2017)

Columns and labels:
Assay type in all cases: cell-based
[1] = system: MZ-CRC-1 medullary thyroid carcinoma, harboring a mutated RET-M918T receptor; assay: In vitro cell proliferation assay (CellTiterGlo), MZ-CRC-1; details: Homo sapiens, antiproliferative activity, 144 h exposure
Method: (§1) In Vitro Cell Proliferation Assay
(§2) To evaluate the antiproliferative activity of a compound of formula (I) the following human cell lines were used: A2780 ovarian carcinoma; TT and MZ-CRC-1 medullary thyroid carcinoma, harboring a mutated RET-C634W and RET-M918T receptor respectively; LC-2/ad human lung adenocarcinoma, harboring the CCDC6-RET fusion protein. Exponentially growing cells were seeded and incubated at 37° C. in a humidified 5% CO2 atmosphere using appropriate medium supplemented with 10% Fetal Bovine Serum. 24 hours following cell plating, scalar doses of the compounds dissolved in 0.1% DMSO were added to the medium and cells were exposed to drugs for either 72 hours (A2780) or 144 hours (TT, MZ-CRC-1 and LC-2/ad), according to their different proliferation rate. At the end of treatment, cell proliferation was determined by an intracellular ATP monitoring system (CellTiterGlo—Promega), following manufacturer's instructions, and using an Envision instrument (PerkinElmer) as reader. Data obtained from compound versus vehicle treated cells were compared using Assay Explorer (Symyx Technologies Inc) software. IC50 values were calculated using sigmoidal interpolation curve fitting.
(§3) In the following Table A the antiproliferative activity of representative compounds of formula (I) on two medullary thyroid carcinoma cell lines expressing the aforementioned mutated forms of RET (TT and MZ-CRC-1) and on one lung adenocarcinoma cell line harboring the aforementioned fusion form of RET (LC-2/ad) is reported. As control, the antiproliferative activity of the same compounds on an unrelated non RET-dependent cell line (A2780) is reported. All these compounds show remarkable activity on RET-driven cellular models with respect to the unrelated ones.

[2] = system: A2780 ovarian carcinoma; assay: In vitro cell proliferation assay (CellTiterGlo), A2780 control line; details: Homo sapiens, antiproliferative activity, 72 hours exposure, non RET-dependent control cell line
Method: as §1, §2, §3

[3] = system: TT medullary thyroid carcinoma, harboring a mutated RET-C634W receptor; assay: In vitro cell proliferation assay (CellTiterGlo), TT; details: Homo sapiens, antiproliferative activity, 144 h exposure
Method: as §1, §2, §3

[4] = system: LC-2/ad human lung adenocarcinoma, harboring the CCDC6-RET fusion protein; assay: In vitro cell proliferation assay (CellTiterGlo), LC-2/ad; details: antiproliferative activity, 144 h exposure
Method: as §1, §2, §3

Row | IC50 [1] [µM] | IC50 [2] [µM] | IC50 [3] [µM] | IC50 [4] [µM] | SMILES
1 | 0.04 | 2.14 | 0.036 | 0.048 | Nc1ncnc2c1c(C#Cc1cc(F)cc(C(=O)NC3CC3)c1)cn2CC(F)(F)F [cmpd 59, 3-{[4-amino-7-(2,2,2-trifluoroethyl)-7H-pyrrolo[2,3-d]pyrimidin-5-yl]ethynyl}-N-cyclopropyl-5-fluorobenzamide]
2 | 0.264 | 4.54 | 0.035 | 0.241 | Cn1cc(C#Cc2cccc(C(=O)NC3CC3)c2)c2c(N)ncnc21 [cmpd 93, 3-[(4-amino-7-methyl-7H-pyrrolo[2,3-d]pyrimidin-5-yl)ethynyl]-N-cyclopropylbenzamide]
